From US9149535B2, “Polymers and the preparation of nanogel drug cocktails” (University of South Carolina, priority 2012, dated 2015)

Test system: cancer cells
Assay: Intracellular trafficking by confocal laser scanning microscopy (CLSM)
Type: cell-based
Settings: 3 hr
Text: To monitor the intracellular trafficking of nanogel, confocal laser scanning microscopy (CLSM) was employed. […] Since only about 20% DOX could be released from nanogel under the intracellular environment (FIG. 2A), the signals should mainly represent ND nanogel. […] Due to its relatively large size, it will be impossible for it to pass the nuclear pore complex, which is about 40 nm.

`COc1cccc2c1C(=O)c1c(O)c3c(c(O)c1C2=O)C[C@@](O)(C(=O)CO)C[C@@H]3O[C@H]1C[C@H](N)[C@H](O)[C@H](C)O1` [DOX, doxorubicin] was tested, and the intracellular localisation was “preferentially labels their nuclei”.
